Results published in patent publication EP3046573B1, “AMYLIN ANALOGUES” (Zealand Pharma A/S, priority 2013, dated 2015).
Read-outs that look alike come from different tables or passages of the source. Numbered stars: 1 amine (or outer) side, 2 acyl side, 3 side chain; on linkers, the order of the positions; unused ones are H or OH. Bridge positions count the residues as written; N and C are the ends. Square brackets hold non-standard residues; d marks the D form. Peptide text beside a SMILES is read from it. * marks the point of attachment. C20 diacid = O=C(O)CCCCCCCCCCCCCCCCCCC(=O)*; γGlu = O=C(O)[C@H](CCC(=O)[*:2])N[*:1]; NMeI = CC[C@H](C)[C@H](NC)C(=O)O; Sar = CNCC(=O)O

Biological target: T1, human calcitonin receptor (hCTR2) (Homo sapiens, UniProt P30988)
T1 construct: expressed in transfected cells
T1 sequence (P30988 25-474): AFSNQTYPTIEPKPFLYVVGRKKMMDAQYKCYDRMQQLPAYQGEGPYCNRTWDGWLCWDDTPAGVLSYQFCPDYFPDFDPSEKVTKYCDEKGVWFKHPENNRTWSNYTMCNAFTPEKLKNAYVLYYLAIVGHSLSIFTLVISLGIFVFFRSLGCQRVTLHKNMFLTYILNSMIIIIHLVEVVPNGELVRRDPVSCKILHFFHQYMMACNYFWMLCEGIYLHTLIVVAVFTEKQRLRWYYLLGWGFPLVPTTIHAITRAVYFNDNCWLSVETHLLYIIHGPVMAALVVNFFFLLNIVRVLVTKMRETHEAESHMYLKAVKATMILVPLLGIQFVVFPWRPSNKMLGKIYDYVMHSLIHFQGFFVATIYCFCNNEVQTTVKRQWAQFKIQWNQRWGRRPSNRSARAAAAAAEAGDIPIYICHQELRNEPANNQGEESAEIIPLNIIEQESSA
Assay: hCTR2 assay: induction of cAMP (AlphaScreen cAMP Assay kit) in COS7 cells expressing hCTR2
Type: cell-based
Procedure, shortened: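 Stable hCTR2 clone in RAMP-naive COS7 cells; peptides titrated in Tyrode buffer (pH 7.4) with 100 µM IBMX, 0.1% casein, 15 min at 37° C. cAMP read by AlphaScreen after lysis; EC50 and efficacy relative to pramlintide from 4PL fit.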

[1] = cAMP induction in COS7 cells expressing hCTR2, average of a minimum of 3 determinations, read-out: hCTR2 EC50

Row | EC50 [1] | SMILES | EC50
1 | – | CC[C@H](C)[C@@H](C(=O)N[C@@H](CC(C)C)C(=O)N[C@H](CO)C(=O)N[C@@H](CO)C(=O)N[C@H](C(=O)N[C@@H](CC(N)=O)C(=O)N[C@H](C(=O)NCC(=O)N[C@@H](CO)C(=O)N[C@@H](CC(N)=O)C(=O)N[C@H](C(=O)N1CCC[C@H]1C(N)=O)[C@@H](C)O)C(C)C)[C@@H](C)O)N(C)C(=O)[C@H](C)NC(=O)CN(C)C(=O)[C@H](Cc1ccccc1)NC(=O)[C@H](CC(N)=O)NC(=O)[C@H](CC(N)=O)NC(=O)[C@H](CO)NC(=O)[C@H](CO)NC(=O)[C@H](Cc1c[nH]cn1)NC(=O)[C@H](Cc1c[nH]cn1)NC(=O)[C@H](CC(C)C)NC(=O)[C@H](Cc1ccccc1)NC(=O)[C@H](CCC(=O)O)NC(=O)[C@H](C)NC(=O)[C@H](CC(C)C)NC(=O)[C@H](CCCNC(=N)N)NC(=O)[C@H](CCC(N)=O)NC(=O)[C@@H](NC(=O)[C@H](C)NC(=O)[C@@H]1CSSC[C@H](NC(=O)[C@H](CCCNC(=N)N)NC(=O)CC[C@H](NC(=O)CCCCCCCCCCCCCCCCCCC(=O)O)C(=O)O)C(=O)N[C@@H](CC(N)=O)C(=O)N[C@@H]([C@@H](C)O)C(=O)N[C@@H](C)C(=O)N[C@@H]([C@@H](C)O)C(=O)N1)[C@@H](C)O [Compound 23, [19CD]-isoGlu-RC()NTATC()ATQRLAEFLHHSSNNF-Gly(Me)-A-Ile(Me)-L-DSer-STNVGSNTP-NH2] ({C20 diacid-γGlu}-RCNTATCATQRLAEFLHHSSNNF[Sar]A[NMeI]L[dS]STNVGSNTP-NH2; disulfide 2-7) | 0.074 nM
2 | 0.14 nM | CC(C)C[C@H](NC(=O)[C@H](C)NC(=O)CN(C)C(=O)[C@H](Cc1ccccc1)NC(=O)[C@H](CC(N)=O)NC(=O)[C@H](CC(N)=O)NC(=O)[C@H](CO)NC(=O)[C@H](CO)NC(=O)[C@H](Cc1c[nH]cn1)NC(=O)[C@H](Cc1c[nH]cn1)NC(=O)[C@H](CC(C)C)NC(=O)[C@H](Cc1ccccc1)NC(=O)[C@H](CCC(=O)O)NC(=O)[C@H](C)NC(=O)[C@H](CC(C)C)NC(=O)[C@H](CCCNC(=N)N)NC(=O)[C@H](CCC(N)=O)NC(=O)[C@@H](NC(=O)[C@H](C)NC(=O)[C@@H]1CSSC[C@H](NC(=O)[C@H](CCCNC(=N)N)NC(=O)CC[C@H](NC(=O)CCCCCCCCCCCCCCCCCCC(=O)O)C(=O)O)C(=O)N[C@@H](CC(N)=O)C(=O)N[C@@H]([C@@H](C)O)C(=O)N[C@@H](C)C(=O)N[C@@H]([C@@H](C)O)C(=O)N1)[C@@H](C)O)C(=O)N[C@@H](CO)C(=O)N[C@@H](CO)C(=O)N[C@H](C(=O)N[C@@H](CC(N)=O)C(=O)N[C@H](C(=O)NCC(=O)N[C@@H](CO)C(=O)N[C@@H](CC(N)=O)C(=O)N[C@H](C(=O)N1CCC[C@H]1C(N)=O)[C@@H](C)O)C(C)C)[C@@H](C)O [Compound 27, [19CD]-isoGlu-RC()NTATC()ATQRLAEFLHHSSNNF-Gly(Me)-ALSSTNVGSNTP-NH2] ({C20 diacid-γGlu}-RCNTATCATQRLAEFLHHSSNNF[Sar]ALSSTNVGSNTP-NH2; disulfide 2-7) | –
3 | 0.56 nM | CC[C@H](C)[C@@H](C(=O)N[C@@H](CC(C)C)C(=O)N[C@@H](CO)C(=O)N[C@@H](CO)C(=O)N[C@H](C(=O)N[C@@H](CC(N)=O)C(=O)N[C@H](C(=O)NCC(=O)N[C@@H](CO)C(=O)N[C@@H](CC(N)=O)C(=O)N[C@H](C(=O)N1CCC[C@H]1C(N)=O)[C@@H](C)O)C(C)C)[C@@H](C)O)N(C)C(=O)CN(C)C(=O)[C@H](Cc1ccccc1)NC(=O)[C@H](CC(N)=O)NC(=O)[C@H](CC(N)=O)NC(=O)[C@H](CO)NC(=O)[C@@H](CO)NC(=O)[C@H](Cc1c[nH]cn1)NC(=O)[C@H](Cc1c[nH]cn1)NC(=O)[C@H](CC(C)C)NC(=O)[C@H](Cc1ccccc1)NC(=O)[C@H](CCC(=O)O)NC(=O)[C@H](C)NC(=O)[C@H](CC(C)C)NC(=O)[C@H](CCCNC(=N)N)NC(=O)[C@H](CCC(N)=O)NC(=O)[C@@H](NC(=O)[C@H](C)NC(=O)[C@@H]1CSSC[C@H](NC(=O)[C@H](CCCNC(=N)N)NC(=O)CC[C@H](NC(=O)CCCCCCCCCCCCCCCCCCC(=O)O)C(=O)O)C(=O)N[C@@H](CC(N)=O)C(=O)N[C@@H]([C@@H](C)O)C(=O)N[C@@H](C)C(=O)N[C@@H]([C@@H](C)O)C(=O)N1)[C@@H](C)O [Compound 30, [19CD]-isoGlu-RC()NTATC()ATQRLAEFLHH-DSer-SNNF-Gly(Me)-Ile(Me)-LSSTNVGSNTP-NH2] ({C20 diacid-γGlu}-RCNTATCATQRLAEFLHH[dS]SNNF[Sar][NMeI]LSSTNVGSNTP-NH2; disulfide 2-7) | –
4 | 0.26 nM | CC[C@H](C)[C@@H](C(=O)N[C@@H](CC(C)C)C(=O)N[C@@H](CO)C(=O)N[C@@H](CO)C(=O)N[C@H](C(=O)N[C@@H](CC(N)=O)C(=O)N[C@H](C(=O)NCC(=O)N[C@@H](CO)C(=O)N[C@@H](CC(N)=O)C(=O)N[C@H](C(=O)N1CCC[C@H]1C(N)=O)[C@@H](C)O)C(C)C)[C@@H](C)O)N(C)C(=O)CN(C)C(=O)[C@H](Cc1ccccc1)NC(=O)[C@H](CC(N)=O)NC(=O)[C@H](CC(N)=O)NC(=O)[C@@H](CO)NC(=O)[C@H](CO)NC(=O)[C@H](Cc1c[nH]cn1)NC(=O)[C@H](Cc1c[nH]cn1)NC(=O)[C@H](CC(C)C)NC(=O)[C@H](Cc1ccccc1)NC(=O)[C@H](CCC(=O)O)NC(=O)[C@H](C)NC(=O)[C@H](CC(C)C)NC(=O)[C@H](CCCNC(=N)N)NC(=O)[C@H](CCC(N)=O)NC(=O)[C@@H](NC(=O)[C@H](C)NC(=O)[C@@H]1CSSC[C@H](NC(=O)[C@H](CCCNC(=N)N)NC(=O)CC[C@H](NC(=O)CCCCCCCCCCCCCCCCCCC(=O)O)C(=O)O)C(=O)N[C@@H](CC(N)=O)C(=O)N[C@@H]([C@@H](C)O)C(=O)N[C@@H](C)C(=O)N[C@@H]([C@@H](C)O)C(=O)N1)[C@@H](C)O [Compound 34, [19CD]-isoGlu-RC()NTATC()ATQRLAEFLHHS-DSer-NNF-Gly(Me)-Ile(Me)-LSSTNVGSNTP-NH2] ({C20 diacid-γGlu}-RCNTATCATQRLAEFLHHS[dS]NNF[Sar][NMeI]LSSTNVGSNTP-NH2; disulfide 2-7) | –
5 | – | CC[C@H](C)[C@@H](C(=O)N[C@@H](CC(C)C)C(=O)N[C@@H](CO)C(=O)N[C@@H](CO)C(=O)N[C@H](C(=O)N[C@@H](CC(N)=O)C(=O)N[C@H](C(=O)NCC(=O)N[C@@H](CO)C(=O)N[C@@H](CC(N)=O)C(=O)N[C@H](C(=O)N1CCC[C@H]1C(N)=O)[C@@H](C)O)C(C)C)[C@@H](C)O)N(C)C(=O)CN(C)C(=O)[C@H](Cc1ccccc1)NC(=O)[C@H](CC(N)=O)NC(=O)[C@@H](CC(N)=O)NC(=O)[C@H](CO)NC(=O)[C@H](CO)NC(=O)[C@H](Cc1c[nH]cn1)NC(=O)[C@H](Cc1c[nH]cn1)NC(=O)[C@H](CC(C)C)NC(=O)[C@H](Cc1ccccc1)NC(=O)[C@H](CCC(=O)O)NC(=O)[C@H](C)NC(=O)[C@H](CC(C)C)NC(=O)[C@H](CCCNC(=N)N)NC(=O)[C@H](CCC(N)=O)NC(=O)[C@@H](NC(=O)[C@H](C)NC(=O)[C@@H]1CSSC[C@H](NC(=O)[C@H](CCCNC(=N)N)NC(=O)CC[C@H](NC(=O)CCCCCCCCCCCCCCCCCCC(=O)O)C(=O)O)C(=O)N[C@@H](CC(N)=O)C(=O)N[C@@H]([C@@H](C)O)C(=O)N[C@@H](C)C(=O)N[C@@H]([C@@H](C)O)C(=O)N1)[C@@H](C)O [Compound 35, [19CD]-isoGlu-RC()NTATC()ATQRLAEFLHHSS-DAsn-NF-Gly(Me)-Ile(Me)-LSSTNVGSNTP-NH2] ({C20 diacid-γGlu}-RCNTATCATQRLAEFLHHSS[dN]NF[Sar][NMeI]LSSTNVGSNTP-NH2; disulfide 2-7) | 0.16 nM
